The source of these data is patent publication US6251950A, “Aliphatic propargylamines as cellular rescue agents” (University of Saskatchewan, priority 1998, dated 2001).

The structures appear in SMILES notation.

The subject of one series is Tourette's syndrome. Conditions: Tourette's syndrome patients; cited from earlier work.
The subject of a further series is PC12 cells. Conditions: cited from earlier work.
Series [1] concerns cerebellar granule cells (CGC). As to the kind of experiment: in vitro. The following applies: 10^-7 M (FIG. 1c). Format: cell-based, Wistar rat. From the text: Cultures of cerebellar granule cells (CGC) can be induced into apoptosis by the addition of a high concentration of cytosine arabinoside (Ara C) (Dessi et al., 1995) and it has been shown that this is a p53 dependent apoptosis (Enokido et al, 1996). We have measured the antiapoptotic effect of N-(2-heptyl)propargylamine (2HPA) using this system and compared the results to those obtained with previously known aliphatic methyl propargylamines and deprenyl.
Cultures of CGC were obtained from 6-8 day old Wistar rat pups. Cultures were grown on glass in 35 mm petri dishes for 3 days and then used for experiments. 20 μl aliquots of drug solutions (Ara C, anti-apoptotic drugs, drug vehicles) were added to the medium of the cultures. 24 Hours later the cultures were fixed with FAM, and stained with bis-benzamide. Normal and apoptotic nuclei were counted to a total of 90-120 cells per culture. […] Concentrations in excess of 150 μM caused detachment of the cultures.
Compounds were added at the following concentrations: Ara C, 100 μM,

The subject of another series is Alzheimer's disease. The following applies: some patients; cited from earlier work.
In series [2] the test system is catecholaminergic neuroblastoma SH-SY5Y cells. The following applies: cited from earlier work.
The next series relates to Parkinson's disease. The following applies: cited from earlier work.
In a further series the test system is SOD1 mRNA, PC12 cells. Conditions: Li, et al., 1995; cited from earlier work.
In another series the test system is damaged neurons. The following applies: some models; cited from earlier work.
For series [3] the following is noted: rodents and humans; cited from earlier work.

Consider `C#CCN(C)[C@H](C)Cc1ccccc1` [R-deprenyl], for which the “symptoms of attention deficit disorder” value in the series on Tourette's syndrome is given as “improved”. For the same molecule, the “prevention of apoptosis in PC12 cells” value in the series on PC12 cells is “can prevent apoptosis”. In addition, the “blocking of Ara C induced apoptosis” value in series [1] is given as “completely blocked”. Further, in the series on Alzheimer's disease, the “clinical condition of Alzheimer patients” value was “improved the clinical condition of some Alzheimer patients”. For the same molecule, in [2], the “cytotoxicity of dopamine towards SH-SY5Y cells” value is given as “enhance the cytotoxicity of dopamine”. In addition, in the series on Parkinson's disease (adjuvant to L-dopa), the “effect in Parkinson's disease” value is “effective adjuvant to L-dopa”. Also, in the series on Parkinson's disease (early otherwise untreated cases, administered alone), the “onset of symptoms in Parkinson's disease” value is listed as “delay onset of symptoms”. Also, the “SOD1 mRNA induction (previous findings)” value with SOD1 mRNA, PC12 cells was “can induce SOD1 mRNA in a dose dependent manner”. Besides, in the series with damaged neurons, the “concentrations required to prevent apoptosis versus minimum necessary for MAO-B inhibition” value is on record as “at least an order of magnitude lower”. Besides, the “life span and sexual activity” value in series [3] was “prolong life span and sexual activity”.
